pIC50, pKd: −log10 of the molar value.
Experiments:
[1] = target: PDHK2 (Homo sapiens (Human), UniProt Q15119); experiment: Biochemical activity testing of PDHK2: PDC inactivation assay; conditions: human rec PDHK2, porcine heart PDC, 5 μM ATP, read-out: IC50 PDHK2 (enzyme assay)
Source text: Biochemical Activity Testing of PDHK2: PDC Inactivation Assay
The biochemical activity assay for PDHK2 is based on the inactivation of PDC through phosphorylation by PDHK2. The assay is run in two steps: the enzymatic PDHK2 reaction in which isolated PDC is phosphorylated by PDHK2 with ATP as co-substrate and the PDC activity assay in which pyruvate and NAD are converted to acetyl-CoA and NADH. The PDC activity correlates to the increase in NADH and thereby is detectable directly via the increasing fluorescence signal (Exc 340 nm, Em 450 nm). Inhibition of PDHK2 results in a lower phosphorylation status and thereby a less decrease in activity of PDC and a stronger increase in NADH fluorescence signal.
The PDC inactivation assay is performed in Greiner 384-well microtiter plates and is used for high throughput screen. 4 μl of PDHK2 (human, rec, Carna Bioscience, 10 ng/μl-137 nM final concentration) and PDC (isolated from porcine heart, Sigma-Aldrich, 20 mU/ml final concentration) are incubated in the absence or presence of the test compound (10 dilution concentrations) for 30 min at room temperature in kinase buffer (15 mM potassium phosphate buffer, pH 7.0, 60 mM KCl, 1.5 mM DTT, 2.5 mM MgCl2, 0.0125% (w/v) BSA, 0.125% Pluronic F-68). The kinase reaction is started by the addition of 4 μl ATP substrate solution (fc 5 μM in kinase buffer). After 30 min incubation at 37° C. 40 μl of PDC reaction solution (100 mM Tris/HCl, pH 7.8, 0.5 mM EDTA, 1 mM MgCl2, 50 mM NaF, 0.25 mM Coenzyme A, 5 mM pyruvate, 1 mM NAD, 5 mM DTT, 1 mM thiamine pyrophosphate) is added. The first fluorescence measurement is performed on a Perkin Elmer Envision (Exc 340 nm, Em 450 nm). The reaction is incubated for 45 min at room temperature. Afterwards a second fluorescence measurement is performed and the PDC activity is calculated by the difference between both measurements. As full value for the PDHK2 assay the inhibitor-free PDHK2 reaction is used. The pharmacological zero value used is DCA (Sigma-Aldrich) in a final concentration of 3 mM. The inhibitory values […] were determined using either the program Symyx Assay Explorer® or Condosseo® from GeneData.

[2] = target: human PDHK2 (12-407) (Homo sapiens (Human), UniProt Q15119); experiment: Isothermal titration calorimetry (ITC) binding; conditions: ITC at 30° C., pH 7.5
Method: Isothermal Titration Calorimetry
ITC measurements were performed with a VP-ITC micro calorimeter (Microcal, LLC/GE Healthcare Bio-Sciences Aft Uppsala, Sweden). In general titrations were performed by titrating the protein (50 μM) to the test compound (5 μM) in 12 μl injections. All binding experiments were carried out at 30° C. In general the test compounds were diluted form DMSO stock solutions into the measurement buffer with a maximum final concentration of 1% DMSO. The measurement buffer was 20 mM HEPES, 135 mM KCl, 1 mM TCEP, 2 mM MgCl2, 15 mM NaH2PO4, pH 7.5. The human PDHK2 (12-407) was produced in E. coli as his-tagged protein and purified by affinity chromatography. The tag was removed by side specific proteolysis. Before titration the protein buffer was changed to the measurement buffer containing the same DMSO concentration as the test compound dilution. ITC data analysis was performed using Origin 7 calorimetry software from the same supplier. For most measurements a binding model of one binding site was assumed. According to the applied mathematical model it is possible to calculate the binding constant (KA), the observed binding enthalpy (ΔH^obs) as well as the stoichiometry (N) of the formed complex.
Preceding analysis the raw data was corrected for the heats of dilution by extrapolating from the saturation value from the end of titration. In order to allow for direct comparison between the respective experimental series and protein preparations the protein concentration was corrected by referencing titrations to a well behaved standard inhibitor. The apparent stoichiometry values defined the fraction of binding competent protein and compensated for relative errors in protein concentration measurements. This corrected protein concentration was used to set up ITC experiment series with test compounds. Any deviations from ideal 1:1 stoichiometry observed here were attributed to errors in compound concentration. This nominal compound concentration was corrected as well to achieve 1:1 stoichiometry in the fit.

[3] = system: PDH-E1alpha (pSer300) in HEK293T cells; experiment: Cellular immunofluorescence assay, PDH-E1alpha (pSer300) in HEK293T cells; type: cell-based, human; conditions: Homo sapiens, HEK-293T, 5 hours incubation, anti-PDH-E1alpha (pSer300) immunofluorescence, read-out: IC50 (cell data)
Method: Cellular Assay for Determination of Compound Activities
Compound activities were determined in a cellular immunofluorescence assay. Human HEK293T cells were seeded into black 384-well plates with clear bottom and grown overnight.
Next day, test compounds were added to the wells and the plates incubated for 5 hours. Following this, cells were fixed with formaldehyde, permeabilised and blocked. The primary antibody, Anti-PDH-E1alpha (pSer300), AP1064 (Merck Millipore) was added and incubated overnight in the plate wells. Next, cells were washed and the secondary antibody, Alexa Fluor 488, goat anti-rabbit ab (A-11008, Invitrogen) was added together with Hoechst 33258 (H3569, Invitrogen) and incubated for 1 hour in the plate wells. Finally, cells were washed and the plates were measured on the laser scanning cytometer acumen hci (TTpLabtech).
The raw data were normalized against a pharmacological inhibitor control and dose response curves were generated by plotting the percent effect values using the software package Genedata screener (Genedata).

pIC50 [1]	pKd [2]	Compound	pIC50 [3]
4.30 to 5.52	5.52 to 6.52	C[C@@](O)(C(=O)N1CCc2nn(-c3ccc(Cl)cc3)cc2C1)C(F)(F)F [Compound A2, (2R)-1-[2-(4-chlorophenyl)-6,7-dihydro-4H-pyrazolo[4,3-c]pyridin-5-yl]-3,3,3-trifluoro-2-hydroxy-2-methyl-propan-1-one]	–
5.52 to 6.52	–	C[C@H]1CN(C(=O)[C@@](C)(O)C(F)(F)F)Cc2cnn(-c3ccc(F)cc3)c21 [Compound A15, (R)-3,3,3-Trifluoro-1-[(S)-1-(4-fluoro-phenyl)-7-methyl-1,4,6,7-tetrahydro-pyrazolo[4,3-c]pyridin-5-yl]-2-hydroxy-2-methyl-propan-1-one]	5.52 to 6.52
5.52 to 6.52	–	C[C@H]1CN(C(=O)[C@@](C)(O)C(F)(F)F)Cc2cnn(-c3ccccc3)c21 [Compound A19, (R)-3,3,3-Trifluoro-2-hydroxy-2-methyl-1-((S)-7-methyl-1-phenyl-1,4,6,7-tetrahydro-pyrazolo[4,3-c]pyridin-5-yl)-propan-1-one]	5.52 to 6.52
5.52 to 6.52	–	C[C@H]1CN(C(=O)[C@@](C)(O)C(F)(F)F)Cc2cnn(-c3ccc(F)cc3F)c21 [Compound A21, (R)-1-[(S)-1-(2,4-Difluoro-phenyl)-7-methyl-1,4,6,7-tetrahydro-pyrazolo[4,3-c]pyridin-5-yl]-3,3,3-trifluoro-2-hydroxy-2-methyl-propan-1-one]	–
4.30 to 5.52	–	C[C@H]1CN(C(=O)[C@@](C)(O)C(F)(F)F)Cc2cnn(C(C)(C)C)c21 [Compound A23, (R)-1-((S)-1-tert-Butyl-7-methyl-1,4,6,7-tetrahydro-pyrazolo[4,3-c]pyridin-5-yl)-3,3,3-trifluoro-2-hydroxy-2-methyl-propan-1-one]	–
5.52 to 6.52	–	C[C@H]1CN(C(=O)[C@@](C)(O)C(F)(F)F)Cc2cnn(-c3ccccc3F)c21 [Compound A25, (R)-3,3,3-Trifluoro-1-[(S)-1-(2-fluoro-phenyl)-7-methyl-1,4,6,7-tetrahydro-pyrazolo[4,3-c]pyridin-5-yl]-2-hydroxy-2-methyl-propan-1-one]	–
4.30 to 5.52	–	C[C@@H]1CN(C(=O)[C@@](C)(O)C(F)(F)F)Cc2cnn(-c3ccccc3C#N)c21 [Compound A26, 2-[(R)-7-Methyl-5-((R)-3,3,3-trifluoro-2-hydroxy-2-methyl-propionyl)-4,5,6,7-tetrahydro-pyrazolo[4,3-c]pyridin-1-yl]-benzonitrile]	–
5.52 to 6.52	–	C[C@H]1CN(C(=O)[C@@](C)(O)C(F)(F)F)Cc2cnn(-c3ccccc3C#N)c21 [Compound A27, 2-[(S)-7-Methyl-5-((R)-3,3,3-trifluoro-2-hydroxy-2-methyl-propionyl)-4,5,6,7-tetrahydro-pyrazolo[4,3-c]pyridin-1-yl]-benzonitrile]	–
5.52 to 6.52	5.52 to 6.52	C[C@H]1CN(C(=O)[C@@](C)(O)C(F)(F)F)Cc2cn[nH]c21 [Compound A29, (R)-3,3,3-Trifluoro-2-hydroxy-2-methyl-1-((S)-7-methyl-1,4,6,7-tetrahydro-pyrazolo[4,3-c]pyridin-5-yl)-propan-1-one]	–
4.30 to 5.52	–	C[C@H]1CN(C(=O)[C@@](C)(O)C(F)(F)F)Cc2cnn(-c3ncccc3F)c21 [Compound A33, (R)-3,3,3-Trifluoro-1-[(S)-1-(3-fluoro-pyridin-2-yl)-7-methyl-1,4,6,7-tetrahydro-pyrazolo[4,3-c]pyridin-5-yl]-2-hydroxy-2-methyl-propan-1-one]	–
5.52 to 6.52	–	C[C@H]1CN(C(=O)[C@@](C)(O)C(F)(F)F)Cc2cnn(-c3ncc(F)cc3F)c21 [Compound A35, (R)-1-[(S)-1-(3,5-Difluoro-pyridin-2-yl)-7-methyl-1,4,6,7-tetrahydro-pyrazolo[4,3-c]pyridin-5-yl]-3,3,3-trifluoro-2-hydroxy-2-methyl-propan-1-one]	–
5.52 to 6.52	–	COc1ncc(F)c(-n2ncc3c2[C@H](C)CN(C(=O)[C@@](C)(O)C(F)(F)F)C3)n1 [Compound A36, (R)-3,3,3-Trifluoro-1-[(R)-1-(5-fluoro-2-methoxy-pyrimidin-4-yl)-7-methyl-1,4,6,7-tetrahydro-pyrazolo[4,3-c]pyridin-5-yl]-2-hydroxy-2-methyl-propan-1-one]	–
5.52 to 6.52	–	C[C@H]1CN(C(=O)[C@@](C)(O)C(F)(F)F)Cc2cnn(C3CCC(O)CC3)c21 (stereo partly drawn) [Compound A39, (R)-3,3,3-Trifluoro-2-hydroxy-1-[(S)-1-(4-hydroxy-cyclohexyl)-7-methyl-1,4,6,7-tetrahydro-pyrazolo[4,3-c]pyridin-5-yl]-2-methyl-propan-1-one]	–
4.30 to 5.52	–	C[C@H]1CN(C(=O)[C@@](C)(O)C(F)(F)F)Cc2cnn(-c3ccc(F)cn3)c21 [Compound A41, (R)-3,3,3-Trifluoro-1-[(S)-1-(5-fluoro-pyridin-2-yl)-7-methyl-1,4,6,7-tetrahydro-pyrazolo[4,3-c]pyridin-5-yl]-2-hydroxy-2-methyl-propan-1-one]	–
5.52 to 6.52	> 6.52	C[C@@H]1CN(C(=O)C(C)(C)O)Cc2cnn(-c3ccc(F)cc3)c21 [Compound A42, 1-[(R)-1-(4-Fluoro-phenyl)-7-methyl-1,4,6,7-tetrahydro-pyrazolo[4,3-c]pyridin-5-yl]-2-hydroxy-2-methyl-propan-1-one]	–
5.52 to 6.52	> 6.52	C[C@@](O)(C(=O)N1CCn2c(nnc2-c2ccccc2)C1)C(F)(F)F [Compound A48, (R)-3,3,3-Trifluoro-2-hydroxy-2-methyl-1-(3-phenyl-5,6-dihydro-8H-[1,2,4]triazolo[4,3-a]pyrazin-7-yl)-propan-1-one]	–
4.30 to 5.52	–	C[C@H]1CN(C(=O)[C@@](C)(O)C(F)(F)F)Cc2cnc(-c3ccc(F)cc3)n21 [Compound A53, (R)-3,3,3-Trifluoro-1-[(S)-3-(4-fluoro-phenyl)-5-methyl-5,6-dihydro-8H-imidazo[1,5-a]pyrazin-7-yl]-2-hydroxy-2-methyl-propan-1-one]	–
5.52 to 6.52	–	C[C@H]1CN(C(=O)[C@@](C)(O)C(F)(F)F)Cc2cnc(-c3ccc(F)cc3F)n21 [Compound A55, (R)-1-[(S)-3-(2,4-Difluoro-phenyl)-5-methyl-5,6-dihydro-8H-imidazo[1,5-a]pyrazin-7-yl]-3,3,3-trifluoro-2-hydroxy-2-methyl-propan-1-one]	–
4.30 to 5.52	–	C[C@H]1CN(C(=O)[C@@](C)(O)C(F)(F)F)Cc2cnc(-c3ncc(F)cc3F)n21 [Compound A56, (R)-1-[(S)-3-(3,5-Difluoro-pyridin-2-yl)-5-methyl-5,6-dihydro-8H-imidazo[1,5-a]pyrazin-7-yl]-3,3,3-trifluoro-2-hydroxy-2-methyl-propan-1-one]	–
